Read-outs that look alike come from different tables or passages of the source.
Experiments:
[1] = tested on: calcium influx in A549 cells; test: Cellular calcium imaging (Fluo-4) in WT A549 cells; type: cell-based, human; settings: for calcium influx compared with 0 μM AHs: A549 cells, 150, 300, 600, 1200 μM; for calcium influx with HC-030031 pre-treatment compared with AHs treatment alone: A549 cells, HC-030031 50 μM, AHs 150-1200 μM
Protocol: (§1) Wild-type (WT) and TRPA1-KO A549 cells were cultured in McCoy’s 5A Media and F-12K Nutrient Mixture containing 10% fetal bovine serum, respectively. WT/TRPA1-KO A549 cells (5 × 10^4 cells/mL) were seeded in 96-well (100 μL/well) and 6-well (2 mL/well) plates and incubated at 37 °C with 5% CO2 in a humidified incubator for 24 h. WT/TRPA1-KO A549 cells were treated with AHs gradient concentrations (0, 150, 300, 600, 1200 μM) prepared in methanol (1.2 M) for 24 h. […]
Working solution was prepared according to the instructions of the Fluo-4 Direct calcium assay kit and directly added to WT/TRPA1-KO A549 cells in 96-well plates, which were incubated for 0.5 h and kept away from light after removal from the incubator. Single channel fluorescein isothiocyanate (FITC) levels were measured using a confocal high-content imaging system (IXM-C S150069, Molecular Devices, San Jose, CA, USA).

A549 cells [2] = test: LDH cytotoxicity assay; type: cell-based, human; settings: 150, 300, 600, 1200 μM, 24 h
Protocol: Wild-type (WT) and TRPA1-KO A549 cells were cultured in McCoy’s 5A Media and F-12K Nutrient Mixture containing 10% fetal bovine serum, respectively. WT/TRPA1-KO A549 cells (5 × 10^4 cells/mL) were seeded in 96-well (100 μL/well) and 6-well (2 mL/well) plates and incubated at 37 °C with 5% CO2 in a humidified incubator for 24 h. WT/TRPA1-KO A549 cells were treated with AHs gradient concentrations (0, 150, 300, 600, 1200 μM) prepared in methanol (1.2 M) for 24 h. Additionally, WT/TRPA1-KO A549 cells were pre-treated with TRPA1 special inhibitor HC-030031 (100 μM) for 0.5 h and then treated with AHs gradient concentrations for 24 h.
Using the Cytotoxicity LDH Assay Kit, lysis buffer (10 μL) was added to the high control well of a 96-well plate containing WT/TRPA1-KO A549 cells, which was then incubated for 0.5 h. Working solution was prepared by adding 5 mL assay buffer to the dye mixture vial, of which 100 μL was added to each well. The plate was protected from light and incubated at room temperature for 0.5 h. Subsequently, 50 μL stop solution was added to each well and the absorbance was measured immediately at 490 nm using a microplate reader (BNR05740, Molecular Devices). The average absorbance was calculated from each sextuplicate set of wells and the background control value was subtracted from each absorbance value. The percentage cytotoxicity was determined using the following equation:cytotoxicity (%) = [(Aa − Ab1)/(Ab2 − Ab1)] × 100% where Aa is the absorbance of the experimental well (containing medium, cells, and compound); Ab2 is the absorbance of the high control well (containing medium, cells, and lysis buffer); and Ab1 is the absorbance of the low control well (containing medium and cells).

[3] = molecular target: hTRPA1 ARD recombinant protein (Homo sapiens, UniProt O75762); test: LSPR binding analysis (OpenSPR, COOH chip); settings: for kon: read-out: association constant (ka); for koff: read-out: dissociation constant (kd)
Sequence of hTRPA1 ARD recombinant protein (O75762 62-609): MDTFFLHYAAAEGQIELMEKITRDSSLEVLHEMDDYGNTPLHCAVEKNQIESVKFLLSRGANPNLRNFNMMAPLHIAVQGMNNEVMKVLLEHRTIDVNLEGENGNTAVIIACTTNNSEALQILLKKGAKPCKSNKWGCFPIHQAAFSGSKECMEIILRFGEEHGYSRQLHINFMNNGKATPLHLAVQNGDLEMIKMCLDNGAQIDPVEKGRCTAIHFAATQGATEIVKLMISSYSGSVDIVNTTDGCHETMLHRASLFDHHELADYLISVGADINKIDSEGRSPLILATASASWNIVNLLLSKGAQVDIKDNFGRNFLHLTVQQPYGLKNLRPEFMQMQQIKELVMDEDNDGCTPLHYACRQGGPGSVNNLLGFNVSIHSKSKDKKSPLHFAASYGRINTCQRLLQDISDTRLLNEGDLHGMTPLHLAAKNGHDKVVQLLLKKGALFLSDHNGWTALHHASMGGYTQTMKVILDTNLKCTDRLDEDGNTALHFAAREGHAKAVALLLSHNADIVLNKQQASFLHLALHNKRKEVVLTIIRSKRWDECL
Protocol: The binding capacity of hTRPA1 ARD recombinant protein and AHs was determined by LSPR according to the OpenSPR (Nicoya Life Sciences, Kitchener, ON, Canada) operating procedure using the COOH chip. After the baseline signal was obtained, the sample was washed with 200 µL 80% isopropyl alcohol for 10 s, and 200 µL ethylcarbodiimide/N-hydroxysuccinimide solution was added. The sample loop was rinsed with phosphate-buffered saline (PBS). hTRPA1 (5 µL) was diluted with PBS, incubated for 4 min, and 200 µL blocking solution was added. […] Contact and dissociation time of analytes and protein were 240 s and 160 s, respectively. TraceDrawer software was applied to determine the association constant (ka), dissociation constant (kd), and affinity constant (KD) using a 1:1 model.

TRPA1 mRNA in A549 cells = test: RT-qPCR of TRPA1 mRNA; type: cell-based, human; settings: for TRPA1 mRNA expression with HC-030031 pre-treatment compared with AHs treatment alone: HC-030031 50 μM, AHs 150, 300, 600 μM; for expression of TRPA1 mRNA compared with 0 μM AHs: significant at one or more of 150, 300, 600 μM
Protocol: as §1
TRIzol Reagent (1 mL) was directly added to WT/TRPA1-KO A549 cells in 6-well plates and total RNA was extracted according to the manufacturer’s instructions. Total RNA was used for cDNA reverse transcription, which was performed according to the PrimeScript RT protocol with the following reaction conditions: 42 °C for 2 min, 4 °C for ∞ (removal of genomic DNA), 37 °C for 15 min, 85 °C for 5 s, and 4 °C for ∞ (reverse transcriptional reaction). RT-qPCR was performed according to the TB Green Premix Ex Taq II protocol. Primer sequences and product lengths were as follows: hTRPA1 (107 bp) forward primer 5′-[…]-3′, reverse primer 5′-[…]-3′; hβ-actin (184 bp) forward primer 5′-[…]-3′, reverse primer 5′-[…]-3′. RT-qPCR was performed using the CFX96 Real-Time System (Bio-Rad Laboratories, Hercules, CA, USA) using the following reaction conditions: 95 °C for 30 s, 40 cycles of 95 °C for 5 s, 60 °C for 30 s, and 72 °C for 30 s, followed by a melting curve from 65 to 95 °C in 0.5 °C/5 s increments. Calculations were performed using the CFX Manager^TM Version 1.0 software (Bio-Rad Laboratories Ltd., Hercules, CA, USA) and are represented as fold change in expression [2^ΔΔC(t)] on a linear scale.

A549 cells [4] = test: CCK-8 cell viability assay in WT A549 cells; type: cell-based, human; settings: for viability of A549 cells compared with 0 μM AHs: 150, 300, 600, 1200 μM, 24 h; for viability of A549 cells compared with 0 μM AHs / IC50: CCK-8; for viability with HC-030031 pre-treatment compared with AHs treatment alone: A549 cells, HC-030031 50 μM, AHs 150, 300, 600 μM
Protocol: as §1
To conduct the cell viability assay, the growth medium was removed from WT/TRPA1-KO A549 cells cultured in a 96-well plate. CCK-8 reagent was mixed with complete medium (1:9 volume ratio), and 100 µL of the CCK-8 reagent mixture was added to each well. The plate was incubated for 4 h and the absorbance was measured at 450 nm using a microplate reader (BNR05740; Molecular Devices, Sunnyvale, CA, USA). The average absorbance from each sextuplicate set of wells was calculated and the background control value was subtracted from each absorbance value. The percentage cell viability was determined using the following equation:cell viability (%) = [(As − Ab)/(Ac − Ab)] × 100% where As is the absorbance of the experimental well (containing medium, CCK-8 reagent, cells, and compound); Ac is the absorbance of the control well (containing medium, CCK-8 reagent, and cells); and Ab is the absorbance of the blank well (containing medium and CCK-8 reagent).

[5] = Homo sapiens, WT A549 cells, 24 h treatment, read-out: IC50 values of AHs, A549 Cells
[6] = WT A549 cells pre-treated with HC-030031 50 μM, then AHs 24 h, read-out: IC50 values of AHs, A549 Cells + HC-030031 50 μM

Structure (SMILES)	calcium influx compared with 0 μM AHs [1]	calcium influx with HC-030031 pre-treatment compared with AHs treatment alone [1]	cell damage (LDH) compared with 0 μM AHs (A549 cells [2])	Kd [3] [µM]	association constant (ka) ([3]; 1:1 model, TraceDrawer) [M⁻¹ s⁻¹]	dissociation constant (kd) ([3]; 1:1 model, TraceDrawer) [s⁻¹]	TRPA1 mRNA expression with HC-030031 pre-treatment compared with AHs treatment alone (TRPA1 mRNA in A549 cells)	expression of TRPA1 mRNA compared with 0 μM AHs (TRPA1 mRNA in A549 cells)	viability of A549 cells compared with 0 μM AHs (A549 cells [4])	viability with HC-030031 pre-treatment compared with AHs treatment alone (A549 cells [4])	IC50 (A549 cells [4]; [5]) [µM]	IC50 (A549 cells [4]; [6]) [µM]	kon [3] [M⁻¹ s⁻¹]	koff [3] [s⁻¹]
CCCOCCN(C(=O)CCl)c1c(CC)cccc1CC [Pretilachlor, pretilachlor]	significantly increased	significantly decreased calcium influx	significantly increased cell damage	309	14.3	0.00443	albeit not significantly	significantly increased	significantly decreased	significantly increased viability	2330	4460	–	–
CCC(=O)Nc1ccc(Cl)c(Cl)c1 [Propanil, propanil]	significantly increased	significantly decreased calcium influx	significantly increased cell damage	16.2	–	–	significantly reduced	significantly increased	significantly decreased	significantly increased viability	831	2290	2390	0.0388
CCc1cccc(C)c1N(C(=O)CCl)C(C)COC (stereo not drawn) [Metolachlor, metolachlor]	significantly increased	significantly decreased calcium influx	significantly increased cell damage	364	–	–	significantly reduced	significantly increased	significantly decreased	significantly increased viability	430	620	112	0.0408
